Data as given in US7351693B2, “Peptides and nucleic acids of the cathelicidin family, derived from fish, and uses thereof” (priority 2002, dated 2008).
Numbered stars: 1 amine (or outer) side, 2 acyl side, 3 side chain; on linkers, the order of the positions; unused ones are H or OH. Bridge positions count the residues as written; N and C are the ends. Square brackets hold non-standard residues; d marks the D form. Peptide text beside a SMILES is read from it. I, II: the chains in the order shown. Actinocin(9to1) = Cc1c2oc3c(C)ccc(C(=O)[*:1])c3nc-2c(C(=O)[*:2])c(N)c1=O; NMeV = CN[C@H](C(=O)O)C(C)C; Sar = CNCC(=O)O

System: trout bactenecin gene
Assay: RT-PCR analysis of trout bactenecin (cathelicidin) expression in stimulated head kidney leucocytes
Type: cell-based, rainbow trout
Conditions: for effect on LPS-stimulated expression of trout bactenecin: added 3 h after LPS stimulation (5 μg/ml), FIG. 14
Method: Rainbow trout head kidney leucocytes were obtained by disrupting the head kidney tissue through a 100 μm nylon mesh. After washing, the leucocytes were suspended in L15 medium (Gibco) and stimulated as follows: • (A) LPS time course: Cells were stimulated with 5 μg/ml of E. coli 0127:B8 lipopolysaccharide (LPS, Sigma) for different time periods (0, 0.5 h, 1 h, 2 h, 3 h, 4 h). • (B) Transcription/translation inhibition: Streptomyces actinomycin D (Sigma) at 100 ng/ml was added to the cells after 3 h of LPS induction (5 μg/ml) to inhibit transcription. Alternatively cycloheximide at 10 μg/ml was added to the cells after 3 h of LPS stimulation (as above) to inhibit translation. • (C) Different inducers: 5 μg/ml of Phytohemagglutinin (PHA, Sigma), 25 ng/ml of Phorbol Myristate Acetate (PMA, Sigma) alone, or in combination with 5×10^−7M of Calcium Ionophore (Sigma) were added to the cells for 4 h.
At the end of the relevant time period, total RNA was isolated from approximately 2×10^7 cells, with RNAzol B (Biogenesis) according to the manufacturer's instructions. The RNA was then reverse transcribed to cDNA and the product used as template in PCRs for the trout cathelicidin gene and β-actin as a positive control. The primers used for the amplification of the cathelicidin gene were fF1 (5′-[…]-3′ SEQ ID NO: 80) and R1 (5′-[…]-3′ SEQ ID NO: 81), and for the β-actin were forward (5′-ATGGAAGATGAAATCGCC-3′ SEQ ID NO: 82) and reverse (5′-TGCCAGATCTTCTCCATG-3′ SEQ ID NO: 83). The PCR reaction mix was as follows: 5 μl of phage mix, 1.5 μl 10 mM dNTPs mix, 0.125 μl of 5 units/μl Taq DNA Polymerase, 2.5 μl 10×NH4 buffer, 0.75 μl 50 mM MgCl2, 1.5 μl forward primer, 1.5 μl reverse primer and 12.125 μl of dH2O. The cycling protocol was as follows: initial melting at 94° C. for 4 min, followed by 30 cycles of 94° C. for 45 sec, 60° C. for 45 sec, 72° C. for 1 min, with a final elongation at 72° C. for 10 min. The expected size of the products was 320 bp for the cathelicidin gene and 260 bp for β-actin.

Compound: Cc1c2oc3c(C)ccc(C(=O)N[C@@H]4C(=O)N[C@H](C(C)C)C(=O)N5CCC[C@H]5C(=O)N(C)CC(=O)N(C)[C@@H](C(C)C)C(=O)O[C@@H]4C)c3nc-2c(C(=O)N[C@@H]2C(=O)N[C@H](C(C)C)C(=O)N3CCC[C@H]3C(=O)N(C)CC(=O)N(C)[C@@H](C(C)C)C(=O)O[C@@H]2C)c(N)c1=O [actinomycin D] (I: T[dV]P[Sar][NMeV] / II: T[dV]P[Sar][NMeV]; ester I:1-I:C, II:1-II:C; linker I:N-II:N via Actinocin(9to1))
- effect on LPS-stimulated expression of trout bactenecin: inhibited completely

Compound: C[C@@H]1C[C@@H]([C@H](O)CC2CC(=O)NC(=O)C2)C(=O)[C@@H](C)C1 [Cycloheximide, cycloheximide]
- effect on LPS-stimulated expression of trout bactenecin: did not induce a superinduction

Compound: CCCCCCCCCCCCCC(=O)O[C@@H]1[C@@H](C)[C@@]2(O)[C@@H](C=C(CO)C[C@]3(O)C(=O)C(C)=C[C@@H]23)[C@@H]2C(C)(C)[C@]12OC(C)=O [PMA, Phorbol Myristate Acetate]
- induction of trout bactenecin expression in leucocytes (after 4 h of induction, FIG. 13): only PMA+calcium ionophore induced expression
